# US11472766B2, “Lipid nanoparticle composition” (Suzhou Abogen Biosciences Co., Ltd., priority 2020, dated 2022)
# Key:
# [1] = Apparent pKa of LNP formulations (TNS fluorescence assay); settings: LNP cationic lipid/DSPC/cholesterol/DMG-PEG 50/10/38.5/1.5 mol %, Table 3
# [2] = tested on: human erythropoietin (hEPO) mRNA; experiment: Animal study: hEPO expression after tail vein injection of LNPs encapsulating hEPO mRNA (serum ELISA); format: in vivo; settings: hEPO level, female ICR mice, 0.5 mg/kg, 6 hours post administration, class symbols, Table 3
# In short: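 Female ICR mice (6-8 weeks) received LNPs carrying hEPO mRNA by tail vein injection at 0.5 mg/kg, with MC3 LNPs dosed the same way as positive control. Blood was drawn at set times (e.g., 6 h) and serum separated. hEPO was quantified by ELISA and reported as μg/ml.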
# [3] = Lipid nanoparticle size by dynamic light scattering (Malvern Zetasizer Nano ZS); format: physicochemical; settings: LNP: cationic lipid/DSPC/cholesterol/PEG-lipid 50:10:38.5:1.5, hEPO mRNA; Table 3
# In short: (§1)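 Ribogreen fluorescence quantifies encapsulated mRNA and backscatter (173°) DLS sizes the particles. These are microfluidically mixed four-component LNPs in DPBS after dialysis.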
# [4] = Encapsulation efficiency of lipid nanoparticles (Quant-it Ribogreen RNA quantification assay); format: physicochemical; settings: LNP encapsulating hEPO mRNA; Table 3
# In short: as §1
SMILES,Apparant Pka [1],polydispersity [3],size nm [3] [nm],Encapsulation Efficiency [4] [%],Expression at 6 h (μg/ml) [2]
CCCCCCCCC(CCCCCC)COC(=O)CCCCCN(CCCCCC(=O)OCC(CCCCCC)CCCCCCCC)CCN(CCO)C1COC1 (stereo not shown) [Compound 88],7.41,0.21,66.89,97.2,D (<0.1)
CCCCCCCCC(CCCCCC)COC(=O)CCCCCN(CCCCCC(=O)OCC(CCCCCC)CCCCCCCC)CCN(CCO)C1CCOCC1 (stereo not shown) [Compound 89],6.7,0.028,84.53,94.6,A (≥2)
CCCCCCCCC(CCCCCC)COC(=O)CCCCCN(CCCCCC(=O)OCC(CCCCCC)CCCCCCCC)CCN(CCO)C1CCOC1 (stereo not shown) [Compound 90],6.6,0.067,72,97.3,B (≥1 and <2)
CCCCCCCCC(CCCCCC)COC(=O)CCCCCN(CCCCCC(=O)OCC(CCCCCC)CCCCCCCC)CCN(CCO)C1CCSCC1 (stereo not shown) [Compound 91],6.257,0.106,62.06,92.1,B (≥1 and <2)
CCCCCCCCC(CCCCCC)COC(=O)CCCCCN(CCCCCC(=O)OCC(CCCCCC)CCCCCCCC)CCN(C1CCCCC1)C1CC(O)C1 (stereo not shown) [Compound 92],6.331,0.04,66.94,95.2,B (≥1 and <2)
CCCCCCCCC(CCCCCC)COC(=O)CCCCCN(CCCCCC(=O)OCC(CCCCCC)CCCCCCCC)CCN(C1CCC1)C1CCC(O)CC1 (stereo not shown) [Compound 93],6.491,0.041,93.74,98.3,A (≥2)
CCCCC/C=C\CCCC(=O)C(CC/C=C\CCCCC)C(CCC/C=C\CCCCC)OC(=O)CCCCCN(CCO)CCCCCC(=O)OCCC/C=C/CCCCC (stereo not shown) [Compound 100],6.187,0.208,58.6,87.7,C (≥0.1 and <1)
CCCCC/C=C\CCCC(=O)C(CC/C=C\CCCCC)C(CCC/C=C\CCCCC)OC(=O)CCCCCN(CCCCCC(=O)OCCC/C=C/CCCCC)CCN(CCO)C1CCC1 (stereo not shown) [Compound 101],6.071,0.067,72,85.5,B (≥1 and <2)
CCCCCCCCC(CCCCCCCC)COC(=O)CCOCCN(CCOCCC(=O)OCC(CCCCCCCC)CCCCCCCC)CCN(CCO)C1CCC1 [Compound 102],6.406,0.004,70.49,94.10,B (≥1 and <2)
CCCCCCCCC(CCCCCCCC)COC(=O)CCOCCN(CCOCCC(=O)OCC(CCCCCCCC)CCCCCCCC)CCN(CCO)C1CCCCC1 [Compound 104],6.184,0.022,70.93,89.96,A (≥2)
CCCCCCCCC(CCCCCC)CC(=O)NCCCCCN(CCCCCNC(=O)CC(CCCCCC)CCCCCCCC)CCN(CCO)C1CCC1 (stereo not shown) [Compound 105],6.698,0.042,92.4,93.3,A (≥2)
CCCCCCCCC(CCCCCC)CC(=O)NCCCCCN(CCCCCOC(=O)CC(CCCCCC)CCCCCCCC)CCN(CCO)C1CCC1 (stereo not shown) [Compound 108],6.711,0.064,80.78,95.6,A (≥2)
CCCCCCCCC(CCCCCC)CNC(=O)CCCCCN(CCCCCC(=O)OCC(CCCCCC)CCCCCCCC)CCN(CCO)C1CC1 (stereo not shown) [Compound 109],6.633,0.06,73.52,97.6,A (≥2)

# Further lines, with some results ahead:
Apparant Pka [1],polydispersity [3],size nm [3] [nm],Encapsulation Efficiency [4] [%],SMILES,Expression at 6 h (μg/ml) [2]
6.696,0.063,91.1,90.0,CCCCCCCCC(CCCCCC)CNC(=O)CCCCCN(CCCCCC(=O)NCC(CCCCCC)CCCCCCCC)CCN(CCO)C1CC1 (stereo not shown) [Compound 110],C (≥0.1 and <1)
6.668,0.049,92.3,89.0,CCCCCCCCC(CCCCCC)CNC(=O)CCCCCN(CCCCCC(=O)NCC(CCCCCC)CCCCCCCC)CCN(CCO)C1CCCC1 (stereo not shown) [Compound 111],B (≥1 and <2)
6.728,0.04,90,91.2,CCCCCCCCC(CCCCCC)CC(=O)NCCCCCN(CCCCCNC(=O)CC(CCCCCC)CCCCCCCC)CCN(CCO)C1CC1 (stereo not shown) [Compound 113],A (≥2)
6.695,0.025,87.92,89.3,CCCCCCCCC(CCCCCC)CC(=O)NCCCCCN(CCCCCNC(=O)CC(CCCCCC)CCCCCCCC)CCN(CCO)C1CCCC1 (stereo not shown) [Compound 114],A (≥2)
6.732,0.117,65.12,98.2,CCCCCCCCC(CCCCCC)CC(=O)NCCCCCN(CCCCCNC(=O)CC(CCCCCC)CCCCCCCC)CCN(CCO)C1CCCCC1 (stereo not shown) [Compound 115],A (≥2)
6.795,0.201,79.28,94.5,CCCCCCCCC(CCCCCC)CC(=O)NCCCCCN(CCCCCNC(=O)CC(CCCCCC)CCCCCCCC)CCN(CCO)C1CCCCCC1 (stereo not shown) [Compound 116],A (≥2)
6.72,0.157,76.79,95.2,CCCCCCCCC(CCCCCC)CC(=O)NCCCCCN(CCCCCOC(=O)CC(CCCCCC)CCCCCCCC)CCN(CCO)C1CC1 (stereo not shown) [Compound 117],A (≥2)
6.523,0.057,62.72,98.9,CCCCCCCCC(CCCCCC)CNC(=O)CCCCCN(CCCCCC(=O)NCC(CCCCCC)CCCCCCCC)CCN(CCO)C1CCC1 (stereo not shown) [Compound 118],A (≥2)
6.264,0.1,59.78,97.1,CCCCCCCCC(CCCCCC)CNC(=O)CCCCCN(CCCCCC(=O)NCC(CCCCCC)CCCCCCCC)CCN(CCO)C1CCCCC1 (stereo not shown) [Compound 120],B (≥1 and <2)
7.048,0.044,57.81,89.4,CCCCCCCCC(CCCCCC)CNC(=O)NCCCCN(CCCCNC(=O)NCC(CCCCCC)CCCCCCCC)CCN(CCO)C1CCCCC1 (stereo not shown) [Compound 122],A (≥2)
